Assay results reported in patent US8815939B2, “Substituted sulfamide derivatives” (Janssen Pharmaceutica NV, priority 2008, dated 2014).

Key:
Type in all cases: in vivo
[1] = Mice studies dosing with the compound of formula (A): plasma and brain analyses; details: mice dosed with the compound of formula (A)
Source text: (§1) The compound of formula (A) was initially isolated from human plasma samples from clinical trials dosing with the compound of formula (S). Additionally, the compound of formula (A) is a pro-drug of the compound of formula (S).

[2] = test system: CF-1 male albino mice; assay: Maximal Electroshock Test (MES), anticonvulsant activity
Protocol: Anticonvulsant activity was determined using the MES test, run according to the procedure described in detail below. Swinyard E A, Woodhead J H, White H S, Franklin M R. Experimental selection, quantification, and evaluation of anticonvulsants. In Levy R H, et al., eds. Antiepileptic Drugs. 3rd ed. New York: Raven Press, 1989:85-102.
CF-1 male albino mice (25-35 g) were fasted for 16 hours before testing. Mice were randomly selected into control and test groups, with the animals dosed with vehicle or test compound, at varying concentrations, respectively. […] Seizures were induced by trans-corneal electric shock using a 60-Hz alternating current, 50 mA, delivered for 0.2 sec. […] […] The test was complete when the entire course of the convulsion has been observed (typically, less than 1 minute after electrical stimulation), and the mice were then immediately euthanized by carbon dioxide inhalation.
Abolition of the full body tonic extensor component of the seizure was taken as the endpoint of the test. […] The ED50 value of the test compound (calculated when appropriate) was the calculated dose required to block the hind limb tonic-extensor component of the MES-induced seizure in 50% of the rodents tested. A probit analysis was used to calculate the ED50 and 95% fiducial limits (FL).
Results are listed as (number of mice with full body tonic extension prevented)/(total number of mice tested) (@ a given time).

[3] = Human plasma samples from clinical trials dosing with the compound of formula (S)
Source text: and pharmaceutically acceptable salts thereof.
as §1

Compound | plasma and brain levels of compound (A) and compound (S) after dosing (pro-drug conversion) [1] | MES Activity, (number of mice with full body tonic extension prevented)/(total number of mice tested) ([2]; 200 mg/kg po, 0.50 Hrs) | MES Activity, (number of mice with full body tonic extension prevented)/(total number of mice tested) ([2]; 200 mg/kg po, 1.0 Hrs) | MES Activity, (number of mice with full body tonic extension prevented)/(total number of mice tested) ([2]; 200 mg/kg po, 2 Hrs) | MES Activity, (number of mice with full body tonic extension prevented)/(total number of mice tested) ([2]; 200 mg/kg po, 3 Hrs) | MES Activity, (number of mice with full body tonic extension prevented)/(total number of mice tested) ([2]; 200 mg/kg po, 6 Hrs) | metabolite found in human plasma [3] | MES Activity, (number of mice with full body tonic extension prevented)/(total number of mice tested) ([2]; 150 mg/kg po, 3 Hrs)
CC(=O)NS(=O)(=O)NC[C@H]1COc2cc(Cl)ccc2O1 [Compound (A), (2S)-(−)-N′-acetyl-N-(6-chloro-2,3-dihydro-benzo[1,4]dioxin-2-ylmethyl)-sulfamide] | levels of the compound of formula (S) higher than those of the compound of formula (A) | 0/5 | 1/5 | 4/5 | 5/5 | 2/5 | – | –
NS(=O)(=O)NC[C@H]1COc2cc(Cl)ccc2O1 [Compound (S), (2S)-(−)-N-(6-chloro-2,3-dihydro-benzo[1,4]dioxin-2-ylmethyl)-sulfamide, reference compound] | – | – | – | – | – | – | The compound of formula (A) is a human metabolite of the compound of formula (S) | 5/5
